The source made the active and inactive calls. The calls are words filed in the database; no cut-off is given here.
Key:
Assay type in all cases: cell-based
[1] = target: Free fatty acid receptor 1 (Homo sapiens) (UniProt O14842); assay: Agonist activity at human GPR40 expressed in rat INS1(832/13) cells harboring human proinsulin assessed as increase in glucose-stimulated insulin secretion at 20 to 40 uM incubated for 5 mins by ELISA
[2] = target: Free fatty acid receptor 1 (Homo sapiens) (UniProt O14842); assay: Agonist activity at human GPR40 expressed in rat INS1(832/13) cells harboring human proinsulin assessed as increase in glucose-stimulated insulin secretion at 40 uM incubated for 5 mins in presence of GPR40 antagonist DC260126 by ELISA
[3] = target: Free fatty acid receptor 1 (Homo sapiens) (UniProt O14842); assay: Partial agonist activity at human GPR40 expressed in rat INS1(832/13) cells harboring human proinsulin assessed as potentiation of 2.5 uM AV1-induced increase in glucose-stimulated insulin secretion at 40 uM by ELISA
[4] = target: Free fatty acid receptor 1 (Homo sapiens) (UniProt O14842); assay: Partial agonist activity at human GPR40 expressed in rat INS1(832/13) cells harboring human proinsulin assessed as potentiation of 2.5 uM AV1-induced increase in glucose-stimulated insulin secretion at 21 uM by ELISA
[5] = target: Free fatty acid receptor 1 (Homo sapiens) (UniProt O14842); assay: Antagonist activity at human GPR40 expressed in rat INS1(832/13) cells harboring human proinsulin assessed as inhibition of 20 uM AV1-induced increase in glucose-stimulated insulin secretion at 40 uM by ELISA
[6] = target: Free fatty acid receptor 1 (Homo sapiens) (UniProt O14842); assay: Antagonist activity at human GPR40 expressed in rat INS1(832/13) cells harboring human proinsulin assessed as inhibition of 20 uM AV1-induced increase in glucose-stimulated insulin secretion at 21 uM by ELISA
[7] = target: Free fatty acid receptor 1 (Homo sapiens) (UniProt O14842); assay: Partial agonist activity at human GPR40 expressed in rat INS1(832/13) cells harboring human proinsulin assessed as potentiation of 10 uM AV1-induced increase in glucose-stimulated insulin secretion by ELISA
[8] = target: Free fatty acid receptor 1 (Homo sapiens) (UniProt O14842); assay: Agonist activity at human GPR40 expressed in rat INS1(832/13) cells harboring human proinsulin assessed as increase in glucose-stimulated insulin secretion at 10 uM incubated for 5 mins in presence of GPR40 antagonist DC260126 by ELISA

Chain of Free fatty acid receptor 1 (Homo sapiens) (O14842 whole entry): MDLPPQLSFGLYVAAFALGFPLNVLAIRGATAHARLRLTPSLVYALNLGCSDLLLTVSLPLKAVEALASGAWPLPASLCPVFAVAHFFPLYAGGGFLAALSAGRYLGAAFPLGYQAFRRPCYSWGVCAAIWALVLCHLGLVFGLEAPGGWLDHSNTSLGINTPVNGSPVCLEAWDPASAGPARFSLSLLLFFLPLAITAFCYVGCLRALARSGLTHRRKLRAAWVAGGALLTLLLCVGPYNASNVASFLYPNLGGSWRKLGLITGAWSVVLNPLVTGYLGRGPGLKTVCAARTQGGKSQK

Activity [1]	Activity [2]	Activity [3]	Activity [4]	Activity [5]	Activity [6]	Activity [7]	Activity [8]	SMILES
Active	inactive	Active	Active	Active	Active	Dose-dependent effect		CCCCCCCC/C=C\CCCCCCCC(=O)Oc1c(-c2ccc(O)c(O)c2)oc2cc(O)cc(O)c2c1=O
Active							inactive	CCCCCCCC/C=C\CCCCCCCC(=O)Oc1c(-c2ccc3c(c2)OC(c2ccccc2)(c2ccccc2)O3)oc2cc(O)cc(O)c2c1=O
